Experiments:
[1] = tested on: AH22 strain; assay: Antifungal compound sensitivity test, control yeast AH22 strain (Example 13); assay type: cell-based, Saccharomyces cerevisiae; details: 30° C. 24.5 hours, relative value in percentage
Experimental: The transformed budding yeast AH22-FoOS1 prepared in Example 12 was cultured while shaking at 30° C. for 18 hours in a Glu-Leu medium. As a control, the AH22 strain was similarly cultured while shaking at 30° C. for 18 hours in a Glu medium. The absorbance at 600 nm of each grown transformed budding yeast in a cell suspension was measured, and cell suspension diluted with sterilized distilled water to the absorbance of 0.1 was prepared. Further, a cell suspension in which the aforementioned cell suspension of the transformed budding yeast AH22-FoOS1 was diluted 50-fold with a Glu-Leu medium, and a cell suspension in which the aforementioned cell suspension of the AH22 strain was diluted 50-fold with a Glu medium were prepared.
A solution in which each of Compounds (1) to (3) was dissolved in dimethylsulfoxide (DMSO) to the concentration of 600 ppm, a solution in which each of Compounds (4) and (5) was dissolved in dimethylsulfoxide (DMSO) to the concentration of 2000 ppm, and a solution in which Compounds (6) and (7) was dissolved in dimethylsulfoxide (DMSO) to the concentration of 20 ppm were prepared, and two microplates were prepared in which each 1.0 μL per well of the Compound solution and DMSO as a control were dispensed. In one microplate among them, each. 100 μL of cell suspensions of the transformed budding yeast AH22-FoOS1 which had been prepared by dilution as described above was dispensed, and cultured by allowing to stand at 30° C. for 26.5 hours. In another microplate, each 100 μL of cell suspensions of the control yeast AH22 strain which had been prepared by dilution as described above was dispensed, and cultured by allowing to stand at 30° C. for 24.5 hours. After culturing, the absorbance at 600 nm of each well was measured with a microplate reader.
A degree of growth of the transformed budding yeast is expressed as a relative value in percentage, letting the absorbance at 600 nm at the concentration of the Compound of 0 ppm to be 100. It was confirmed that an inhibiting degree of growth of the transformed budding yeast TM182-FoOS1 by each test substance was grater than an inhibiting degree of growth of the transformed budding yeast AH22-FoOS1 by each test substance, and the transformed budding yeast TM182-FoOS1 was a transformed cell with the enhanced sensitivity to an antifungal compound as compared with the transformed budding yeast AH22-FoOS1.

[2] = tested on: transformed budding yeast TM182-HIK1; assay: Antifungal compound sensitivity test of transformed budding yeast TM182-HIK1 (Example 9); assay type: cell-based, Saccharomyces cerevisiae; details: 30° C. 27 hours; for Degree of growth of budding yeast (%) TM182-HIK1 Gal-Ura-Leu medium: control medium
Experimental: Similarly, the transformed budding yeast TM182-HIK1 prepared in Example 8 was cultured at 30° C. for 24 hours in a Glu-Ura-Leu medium. The absorbance at 600 nm of a cell suspension of the grown transformed budding yeast was measured, and a cell suspension diluted with each medium to the absorbance of 0.1 was prepared. Further, a cell suspension in which the aforementioned cell suspension of the transformed budding yeast TM182-HIK1 was diluted 50-fold with a Glu-Ura-Leu medium and, as a control, a cell suspension in which the suspension was diluted 50-fold with a […] prepared. A suspension in which each of Compounds (1) to (3) was dissolved in dimethylsulfoxide (DMSO) to the concentration of 200 ppm, a solution in which each of Compounds (4) and (5) was dissolved in dimethylsulfoxide (DMSO) to the concentration of 600 ppm, and a solution in which each of Compounds (6) and (7) was dissolved in dimethylsulfoxide (DMSO) to the concentration of 20 ppm were prepared, and two microplates were prepared in which each 1.0 μL per well of the Compound DMSO solution and DMSO as a control were dispensed into two wells. In one microplate among them, each 100 μL of cell suspensions of the transformed budding yeast TM182-HIK1 which had been prepared by dilution with a Glu-Ura-Leu medium as described above was dispensed, and cultured by allowing to stand at 30° C. for 27 hours. In another microplate; as described above, as a control, each 100 μL of cell suspensions of the transformed budding yeast TM182-HIK1 which had been prepared by dilution with a Gal-Ura-Leu medium was dispensed, and cultured by allowing to stand at 30° C. for 27 hours. After culturing, the absorbance at 600 nm of each well was measured with a microplate reader.
Degree of growths of both of the transformed budding yeasts cultured in the presence of Compounds (1) to (7) and budding yeast as a control therefor are shown in Table 3. Degrees of growths of both of the transformed budding yeasts and budding yeast as a control thereof or are shown by a relative value in percentage, letting the absorbance of 600 nm at the concentration of the Compound of 0 ppm to be […]. It was confirmed that an inhibiting degree of growth of TM182-HIK1 by each test substance was greater than an inhibiting degree of growth of AH22-HIK1 by each test substance, and the TM182-HIK1 was a transformed cell with the enhanced sensitivity to an antifungal-compound as compared with AH22-HIK1.

CC12CC1(C)C(=O)N(c1cc(Cl)cc(Cl)c1)C2=O (stereo not drawn) [Compound (1), Procymidone]
Degree of growth of budding yeast AH22 Glu medium ([1]; final concentration 6 ppm): 88%
Degree of growth of budding yeast (%) TM182-HIK1 Gal-Ura-Leu medium ([2]; final concentration 2.0 ppm): 100%
Degree of growth of budding yeast (%) TM182-HIK1 Glu-Ura-Leu medium ([2]; final concentration 2.0 ppm): 62%

CC(C)NC(=O)N1CC(=O)N(c2cc(Cl)cc(Cl)c2)C1=O [Compound (2), Iprodione]
Degree of growth of budding yeast AH22 Glu medium ([1]; final concentration 6 ppm): 91%
Degree of growth of budding yeast (%) TM182-HIK1 Gal-Ura-Leu medium ([2]; final concentration 2.0 ppm): 94%
Degree of growth of budding yeast (%) TM182-HIK1 Glu-Ura-Leu medium ([2]; final concentration 2.0 ppm): 79%

C=CC1(C)OC(=O)N(c2cc(Cl)cc(Cl)c2)C1=O (stereo not drawn) [Compound (3), Vinclozolin]
Degree of growth of budding yeast AH22 Glu medium ([1]; final concentration 6 ppm): 87%
Degree of growth of budding yeast (%) TM182-HIK1 Gal-Ura-Leu medium ([2]; final concentration 2.0 ppm): 100%
Degree of growth of budding yeast (%) TM182-HIK1 Glu-Ura-Leu medium ([2]; final concentration 2.0 ppm): 30%

O=[N+]([O-])c1c(Cl)c(Cl)c(Cl)c(Cl)c1Cl [Compound (4), Quintozene]
Degree of growth of budding yeast AH22 Glu medium ([1]; final concentration 20 ppm): 96%
Degree of growth of budding yeast (%) TM182-HIK1 Gal-Ura-Leu medium ([2]; final concentration 6.0 ppm): 97%
Degree of growth of budding yeast (%) TM182-HIK1 Glu-Ura-Leu medium ([2]; final concentration 6.0 ppm): 63%

COP(=S)(OC)Oc1c(Cl)cc(C)cc1Cl [Compound (5), Tolclofos-methyl]
Degree of growth of budding yeast AH22 Glu medium ([1]; final concentration 20 ppm): 80%
Degree of growth of budding yeast (%) TM182-HIK1 Gal-Ura-Leu medium ([2]; final concentration 6.0 ppm): 106%
Degree of growth of budding yeast (%) TM182-HIK1 Glu-Ura-Leu medium ([2]; final concentration 6.0 ppm): 22%

N#Cc1c[nH]cc1-c1cccc2c1OC(F)(F)O2 [Compound (6), Fludioxonil]
Degree of growth of budding yeast AH22 Glu medium ([1]; final concentration 0.2 ppm): 92%
Degree of growth of budding yeast (%) TM182-HIK1 Gal-Ura-Leu medium ([2]; final concentration 0.2 ppm): 104%
Degree of growth of budding yeast (%) TM182-HIK1 Glu-Ura-Leu medium ([2]; final concentration 0.2 ppm): 11%

N#Cc1c[nH]cc1-c1cccc(Cl)c1Cl [Compound (7), Fenpiclonil]
Degree of growth of budding yeast AH22 Glu medium ([1]; final concentration 0.2 ppm): 91%
Degree of growth of budding yeast (%) TM182-HIK1 Gal-Ura-Leu medium ([2]; final concentration 0.2 ppm): 87%
Degree of growth of budding yeast (%) TM182-HIK1 Glu-Ura-Leu medium ([2]; final concentration 0.2 ppm): 9%

Reference: US7452688B2, “Transformed cell with enhanced sensitivity to antifungal compound and use thereof” (Sumitomo Chemical Company, Limited, priority 2002, dated 2008)
